# According to ChEMBL document CHEMBL1134149, “Discovery, total synthesis, HRV 3C-protease inhibitory activity, and structure-activity relationships of 2-methoxystypandrone and its analogues” (Bioorg Med Chem Lett, 2001):
# What was measured:
# Papain = biological target: T1, Papain (Carica papaya, UniProt P00784); test: Inhibitory activity against papain using HPLC assay
# T1 sequence (P00784 whole entry): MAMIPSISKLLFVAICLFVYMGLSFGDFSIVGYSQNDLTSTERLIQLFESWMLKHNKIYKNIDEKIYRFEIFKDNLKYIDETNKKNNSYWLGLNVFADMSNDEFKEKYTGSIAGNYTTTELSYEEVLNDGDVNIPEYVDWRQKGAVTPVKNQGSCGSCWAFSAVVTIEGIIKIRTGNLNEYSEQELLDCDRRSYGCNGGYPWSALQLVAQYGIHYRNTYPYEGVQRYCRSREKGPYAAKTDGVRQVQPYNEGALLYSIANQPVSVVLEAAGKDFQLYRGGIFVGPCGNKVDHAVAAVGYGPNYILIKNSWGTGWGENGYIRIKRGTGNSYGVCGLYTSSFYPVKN
# Papain (Carica papaya) = biological target: T2, Papain (Carica papaya) (UniProt P00784); test: Percent inhibition against papain; conditions: concentration not given here
# T2 sequence (whole entry): T1 sequence (P00784 whole entry)
Structure (SMILES),IC50 (Papain) [µM],inhibition (Papain (Carica papaya)) [%]
COC1=CC(=O)c2c(cc(C)c(C(C)=O)c2OC(C)=O)C1=O,33,
COC1=CC(=O)c2c(cc(C)c(C(C)=O)c2O)C1=O,23,
O=C1C=CC(=O)c2c1ccc1c2ccc2ccccc21,18,45
"O=C1C=Cc2ccccc2C1=O [1,2-NAPHTHOQUINONE]",120,67
"O=C1C(=O)c2ccccc2-c2ccccc21 [9,10-PHENANTHRENEQUINONE]",91,24
O=C1C=CC(=O)c2ccccc21 [NAPHTHOQUINONE],29,
